In publication PMC10395789, “Impacts of some metal ions on glutathione s-transferase in the liver of Chalcalburnus tarichi: an endemic species of Lake Van” (Turkish Journal of Chemistry, 2022):
Several values for one entry are separate records, joined by “and”; a condition that tells them apart may be missing. Equal values may be shown once.

Assays:
[1] = test system: C. tarichi Pallas liver GST; experiment: In vitro inhibition effect of metals on GST enzyme activity; format: biochemical, Chalcalburnus tarichi Pallas; details: for Inhibition type / Ki: GSH substrate, Lineweaver–Burk plots; for IC50: purified liver GST, from Activity (%)–[metal ion] plots; for Ki: three metal concentrations, mean ± standard error of the mean
Experimental: C. tarichi Pallas fish were obtained from Van Lake basin. The liver samples of C. tarichi Pallas were immediately removed and preserved for experimental studies according to the cold chain principles. The livers were sliced into small pieces and successfully lysed by a homogenizer in 50 mM Tris/HCl buffer (pH 7.2) containing 1 mM DTT, 1 mM PMSF and 1 mM EDTA. Homogenate was centrifuged twice at 4 °C and 20,000 × g for 60 min. The supernatant was used in subsequent analyses. For GST purification, we followed the procedure described in our previous study.
(§1) GST activity was measured with the method in our previous study using CDNB as the model substrate.
IC50 was defined as the concentration of the compound causing 50% inhibition, and it was calculated based on Activity (%)–[metal ion] plots for each metal. The Ki values and inhibition types were found using Lineweaver–Burk plots. For the Ki study, we selected 3 inhibitor concentrations and made activity measurements relative to the control values, and then we calculated 1 / S and 1 / V values and plotted Ki plots. Analysis of the data and drawing of graphs were realized using GraphPad Prism ver. 8 for Mac (GraphPad Software, La Jolla California USA). […] Differences between data sets were considered statistically significant when the p-value was less than 0.05.

[2] = test system: C. tarichi Pallas liver GST; experiment: Kinetic analysis (Km, Vmax, Lineweaver–Burk plot) of liver GST with GSH and CDNB as cosubstrates; format: biochemical, Chalcalburnus tarichi Pallas; details: substrate of liver GST
Experimental: as §1
Bradford procedure was used for protein quantity. The optimal pH and ionic strength were determined based on the activity of the pure enzyme described in a previous study. The effects of temperature on GST activity were made spectrophotometrically at temperatures ranging from 0 to 80 °C as described in a previous study. Stable pH ranges were 5.5–8.0 and 7.0–9.0. The enzyme solution was mixed with the buffers at the corresponding pH values. The activities were assayed at every 24 h for 4 days. Different concentrations of GSH and CDNB were used as substrates to determine the Vmax and Km values of the GST enzyme. Vmax and Km values were determined based on the Lineweaver–Burk plot.

[3] = test system: GST in the liver of Bonito; parameters: method as in Güller et al. 43; details: ref Güller et al. 43; cited from earlier work
[4] = test system: GST from Lake Van fish gills; parameters: method as in PMID 25856719; details: Lake Van fish gill GST; cited from earlier work
GST from muscle tissue = test system: GST from muscle tissue; parameters: method as in Aksoy et al. 15; details: ref Aksoy et al. 15; cited from earlier work
GST from turkey livers = test system: GST from turkey livers; parameters: method as in PMID 22989768; details: turkey liver GST; cited from earlier work

| Compound | Inhibition type [1] | IC50 [1] | Effect on GST enzyme activity [3] | further results |
| --- | --- | --- | --- | --- |
| [Co+2] [Co^2+] | Competitive | 446 µM |  |  |
| O=[N+]([O-])c1ccc(Cl)c([N+](=O)[O-])c1 [CDNB] |  |  |  | Km [2]: 890 µM; Vmax [2]: 1.245 EU/mL and 1.25 EU/mL |
| [Cd+2] [Cd^2+] | Competitive | 235 µM | showed inhibitory effects | Ki [1]: 117 ± 31 µM |
| [Cu+2] [Cu^2+] | Competitive | 163 µM | showed inhibitory effects | Ki [1]: 49 ± 9 µM |
| N[C@@H](CCC(=O)N[C@@H](CS)C(=O)NCC(=O)O)C(=O)O [GSH] |  |  |  | Km [2]: 60 µM; Vmax [2]: 0.562 EU/mL and 0.56 EU/mL |
| [Ag+] [Ag^+] | Noncompetitive | 0.21 µM | showed inhibitory effects | Inhibitory effect among the studied metal ions ([1]; compared with Cu2+, Cd2+, Co2+): best inhibitory effect; Inhibitory effect among the studied metal ions [4]: best inhibitory effect; Inhibitory effect among all studied metal ions (GST from muscle tissue): best inhibitor; Inhibitory effect on enzyme activity (GST from turkey livers): potent inhibitory effect |
| [Zn+2] [Zn^2+] |  |  | showed inhibitory effects |  |
| [Fe+3] [Fe^3+] |  |  | did not show any impact |  |
| [Pb+2] [Pb^2+] |  |  | did not show any impact |  |
| [Cr+2] [Cr^2+] |  |  | did not show any impact |  |
